Reference: PubChem BioAssay (NCI)
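Test compounds were applied to cells in 96-well plates for 48 hours at 5 doses. Here, GI50 denotes the concentration required for 50% inhibition of growth. The concentration for full growth arrest is given as TGI.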

Experiments:
Experiment in all cases: DTP human tumour cell line panel, 48 h; in the data active means GI50 below about 0.43 µM; inactive means the rest
BT-549 breast = system: BT-549 breast
MALME-3M melanoma = system: MALME-3M melanoma
SW-620 colon = system: SW-620 colon
NCI-H226 lung = system: NCI-H226 lung
OVCAR-4 ovarian = system: OVCAR-4 ovarian
ACHN renal = system: ACHN renal
MCF7 breast = system: MCF7 breast
OVCAR-8 ovarian = system: OVCAR-8 ovarian
HCT-116 colon = system: HCT-116 colon
M14 melanoma = system: M14 melanoma
HT29 colon = system: HT29 colon
CAKI-1 renal = system: CAKI-1 renal
DU-145 prostate = system: DU-145 prostate
SNB-75 CNS = system: SNB-75 CNS
NCI-H23 lung = system: NCI-H23 lung
A549 NSCLC = system: A549 NSCLC
HS 578T breast = system: HS 578T breast
UACC-257 melanoma = system: UACC-257 melanoma
786-0 renal = system: 786-0 renal
SF-295 CNS = system: SF-295 CNS
MDA-MB-435 = system: MDA-MB-435
K-562 leukemia = system: K-562 leukemia
SF-268 CNS = system: SF-268 CNS
HL-60(TB) leukemia = system: HL-60(TB) leukemia
NCI-H460 lung = system: NCI-H460 lung
SNB-19 CNS = system: SNB-19 CNS
RXF 393 renal = system: RXF 393 renal
KM12 colon = system: KM12 colon
CCRF-CEM leukemia = system: CCRF-CEM leukemia
SK-MEL-2 melanoma = system: SK-MEL-2 melanoma
HOP-62 NSCLC = system: HOP-62 NSCLC
RPMI-8226 leukemia = system: RPMI-8226 leukemia
MOLT-4 leukemia = system: MOLT-4 leukemia
COLO 205 colon = system: COLO 205 colon
NCI-H522 lung = system: NCI-H522 lung
NCI/ADR-RES ovarian = system: NCI/ADR-RES ovarian
SF-539 CNS = system: SF-539 CNS
U251 CNS = system: U251 CNS
IGROV1 ovarian = system: IGROV1 ovarian
OVCAR-5 ovarian = system: OVCAR-5 ovarian
TK-10 renal = system: TK-10 renal
SR leukemia = system: SR leukemia
SK-MEL-28 melanoma = system: SK-MEL-28 melanoma
UO-31 renal = system: UO-31 renal
EKVX NSCLC = system: EKVX NSCLC
LOX IMVI melanoma = system: LOX IMVI melanoma
OVCAR-3 ovarian = system: OVCAR-3 ovarian
HCT-15 colon = system: HCT-15 colon
SK-MEL-5 melanoma = system: SK-MEL-5 melanoma
T-47D breast = system: T-47D breast
UACC-62 melanoma = system: UACC-62 melanoma
SN12C renal = system: SN12C renal
PC-3 prostate = system: PC-3 prostate
MDA-MB-231 breast = system: MDA-MB-231 breast
SK-OV-3 ovarian = system: SK-OV-3 ovarian
A498 renal = system: A498 renal
HOP-92 NSCLC = system: HOP-92 NSCLC
HCC-2998 colon = system: HCC-2998 colon

Cc1ccc(/C(=N/NS(=O)(=O)c2cc(C)c(Cl)cc2Cl)Sc2cc(Cl)c(C)cc2S(N)(=O)=O)cc1
> 100 µM: TGI (BT-549 breast) | TGI (MALME-3M melanoma) | TGI (SW-620 colon) | TGI (NCI-H226 lung) | TGI (OVCAR-4 ovarian) | TGI (ACHN renal) | TGI (MCF7 breast) | TGI (OVCAR-8 ovarian) | TGI (HCT-116 colon) | TGI (M14 melanoma) | TGI (HT29 colon) | TGI (CAKI-1 renal) | TGI (DU-145 prostate) | TGI (SNB-75 CNS) | TGI (NCI-H23 lung) | TGI (A549 NSCLC) | TGI (HS 578T breast) | TGI (UACC-257 melanoma) | TGI (786-0 renal) | TGI (SF-295 CNS) | TGI (MDA-MB-435) | TGI (K-562 leukemia) | TGI (SF-268 CNS) | TGI (HL-60(TB) leukemia) | TGI (NCI-H460 lung) | TGI (SNB-19 CNS) | TGI (RXF 393 renal) | TGI (KM12 colon) | TGI (CCRF-CEM leukemia) | TGI (SK-MEL-2 melanoma) | TGI (HOP-62 NSCLC) | TGI (RPMI-8226 leukemia) | TGI (MOLT-4 leukemia) | TGI (COLO 205 colon) | TGI (NCI-H522 lung) | TGI (NCI/ADR-RES ovarian) | TGI (SF-539 CNS) | TGI (U251 CNS) | TGI (IGROV1 ovarian) | TGI (OVCAR-5 ovarian) | TGI (TK-10 renal) | TGI (SR leukemia) | TGI (SK-MEL-28 melanoma) | TGI (UO-31 renal) | TGI (EKVX NSCLC) | TGI (LOX IMVI melanoma) | TGI (OVCAR-3 ovarian) | TGI (HCT-15 colon) | TGI (SK-MEL-5 melanoma) | TGI (T-47D breast) | TGI (UACC-62 melanoma) | TGI (SN12C renal) | TGI (PC-3 prostate) | TGI (MDA-MB-231 breast) | TGI (SK-OV-3 ovarian) | TGI (A498 renal)
inactive: GI50 (BT-549 breast) 83.5 µM | GI50 (MALME-3M melanoma) 63.6 µM | GI50 (SW-620 colon) > 100 µM | GI50 (NCI-H226 lung) > 100 µM | GI50 (OVCAR-4 ovarian) > 100 µM | GI50 (ACHN renal) 86.4 µM | GI50 (MCF7 breast) > 100 µM | GI50 (OVCAR-8 ovarian) > 100 µM | GI50 (HCT-116 colon) > 100 µM | GI50 (M14 melanoma) > 100 µM | GI50 (HT29 colon) > 100 µM | GI50 (CAKI-1 renal) > 100 µM | GI50 (DU-145 prostate) 49.7 µM | GI50 (SNB-75 CNS) > 100 µM | GI50 (NCI-H23 lung) > 100 µM | GI50 (A549 NSCLC) > 100 µM | GI50 (HS 578T breast) > 100 µM | GI50 (UACC-257 melanoma) > 100 µM | GI50 (786-0 renal) > 100 µM | GI50 (SF-295 CNS) > 100 µM | GI50 (MDA-MB-435) > 100 µM | GI50 (K-562 leukemia) 70.1 µM | GI50 (SF-268 CNS) > 100 µM | GI50 (HL-60(TB) leukemia) 70 µM | GI50 (NCI-H460 lung) > 100 µM | GI50 (SNB-19 CNS) > 100 µM | GI50 (RXF 393 renal) 90.9 µM | GI50 (KM12 colon) > 100 µM | GI50 (CCRF-CEM leukemia) > 100 µM | GI50 (SK-MEL-2 melanoma) > 100 µM | GI50 (HOP-62 NSCLC) > 100 µM | GI50 (RPMI-8226 leukemia) 51.3 µM | GI50 (MOLT-4 leukemia) 17.9 µM | GI50 (COLO 205 colon) > 100 µM | GI50 (NCI-H522 lung) > 100 µM | GI50 (NCI/ADR-RES ovarian) > 100 µM | GI50 (SF-539 CNS) > 100 µM | GI50 (U251 CNS) > 100 µM | GI50 (IGROV1 ovarian) > 100 µM | GI50 (OVCAR-5 ovarian) > 100 µM | GI50 (TK-10 renal) > 100 µM | GI50 (SR leukemia) 41 µM | GI50 (SK-MEL-28 melanoma) > 100 µM | GI50 (UO-31 renal) > 100 µM | GI50 (EKVX NSCLC) 70.9 µM | GI50 (LOX IMVI melanoma) > 100 µM | GI50 (OVCAR-3 ovarian) 59 µM | GI50 (HCT-15 colon) > 100 µM | GI50 (SK-MEL-5 melanoma) > 100 µM | GI50 (T-47D breast) > 100 µM | GI50 (UACC-62 melanoma) > 100 µM | GI50 (SN12C renal) > 100 µM | GI50 (PC-3 prostate) > 100 µM | GI50 (MDA-MB-231 breast) > 100 µM | GI50 (SK-OV-3 ovarian) > 100 µM | GI50 (A498 renal) > 100 µM

O=C1OC2(c3ccc(O)cc3Oc3cc(O)ccc32)c2cccc3cccc1c23
> 100 µM: TGI (HCT-116 colon) | TGI (CAKI-1 renal) | TGI (HS 578T breast) | TGI (SF-295 CNS) | TGI (K-562 leukemia) | TGI (SF-268 CNS) | TGI (CCRF-CEM leukemia) | TGI (MOLT-4 leukemia) | TGI (NCI/ADR-RES ovarian) | TGI (SR leukemia) | TGI (UO-31 renal) | TGI (HCC-2998 colon) | TGI (PC-3 prostate) | TGI (SK-OV-3 ovarian)
43.4 µM: TGI (SNB-75 CNS) | TGI (SF-539 CNS)
40.7 µM: TGI (OVCAR-5 ovarian)
44 µM: TGI (ACHN renal)
58.1 µM: TGI (TK-10 renal)
56.3 µM: TGI (RPMI-8226 leukemia)
97.6 µM: TGI (HOP-92 NSCLC)
39.8 µM: TGI (A549 NSCLC)
82.9 µM: TGI (SN12C renal)
34.3 µM: TGI (SK-MEL-28 melanoma)
34.4 µM: TGI (OVCAR-4 ovarian)
36.9 µM: TGI (OVCAR-8 ovarian) | TGI (DU-145 prostate)
56.7 µM: TGI (M14 melanoma)
54.7 µM: TGI (MALME-3M melanoma)
38 µM: TGI (MDA-MB-435)
inactive: GI50 (BT-549 breast) 21.6 µM | GI50 (MALME-3M melanoma) 20.5 µM | GI50 (SW-620 colon) 16.5 µM | GI50 (NCI-H226 lung) 16.1 µM | GI50 (OVCAR-4 ovarian) 16.1 µM | GI50 (ACHN renal) 16.7 µM | GI50 (MCF7 breast) 19.9 µM | GI50 (OVCAR-8 ovarian) 17.4 µM | GI50 (HCT-116 colon) 22.4 µM | GI50 (M14 melanoma) 22.3 µM | GI50 (HT29 colon) 21 µM | GI50 (CAKI-1 renal) 24.6 µM | GI50 (DU-145 prostate) 18.9 µM | GI50 (SNB-75 CNS) 12.3 µM | GI50 (NCI-H23 lung) 20 µM | GI50 (A549 NSCLC) 19.7 µM | GI50 (HS 578T breast) 22.2 µM | GI50 (UACC-257 melanoma) 23.6 µM | GI50 (786-0 renal) 27 µM | GI50 (HOP-92 NSCLC) 19 µM | GI50 (SF-295 CNS) 32.3 µM | GI50 (MDA-MB-435) 19.1 µM | GI50 (K-562 leukemia) 33.2 µM | GI50 (SF-268 CNS) 29.5 µM | GI50 (HL-60(TB) leukemia) 30.6 µM | GI50 (NCI-H460 lung) 23.1 µM | GI50 (SNB-19 CNS) 17.5 µM | GI50 (RXF 393 renal) 13.8 µM | GI50 (KM12 colon) 23.2 µM | GI50 (CCRF-CEM leukemia) 26.5 µM | GI50 (SK-MEL-2 melanoma) 21.4 µM | GI50 (HOP-62 NSCLC) 17 µM | GI50 (RPMI-8226 leukemia) 21.5 µM | GI50 (MOLT-4 leukemia) 31.6 µM | GI50 (COLO 205 colon) 17.2 µM | GI50 (NCI-H522 lung) 17.5 µM | GI50 (NCI/ADR-RES ovarian) 31.7 µM | GI50 (SF-539 CNS) 18.7 µM | GI50 (U251 CNS) 18.1 µM | GI50 (IGROV1 ovarian) 19.1 µM | GI50 (OVCAR-5 ovarian) 17.2 µM | GI50 (TK-10 renal) 27.4 µM | GI50 (SR leukemia) 27.5 µM | GI50 (SK-MEL-28 melanoma) 17.2 µM | GI50 (UO-31 renal) 17.1 µM | GI50 (LOX IMVI melanoma) 18.1 µM | GI50 (HCT-15 colon) 19.2 µM | GI50 (HCC-2998 colon) 48.4 µM | GI50 (SK-MEL-5 melanoma) 14.6 µM | GI50 (T-47D breast) 28.6 µM | GI50 (UACC-62 melanoma) 17.3 µM | GI50 (SN12C renal) 22.1 µM | GI50 (PC-3 prostate) 36.2 µM | GI50 (MDA-MB-231 breast) 14.3 µM | GI50 (SK-OV-3 ovarian) 34 µM | GI50 (A498 renal) 24.8 µM
57.8 µM: TGI (KM12 colon)
99.6 µM: TGI (T-47D breast)
26.9 µM: TGI (RXF 393 renal)
42.7 µM: TGI (SW-620 colon)
52.6 µM: TGI (HCT-15 colon)
42.5 µM: TGI (UACC-62 melanoma)
43.7 µM: TGI (NCI-H522 lung)
91.3 µM: TGI (MCF7 breast)
34.1 µM: TGI (SNB-19 CNS)
48 µM: TGI (SK-MEL-2 melanoma)
61.4 µM: TGI (NCI-H460 lung)
49.9 µM: TGI (NCI-H23 lung)
62.7 µM: TGI (BT-549 breast)
57.4 µM: TGI (IGROV1 ovarian)
81.6 µM: TGI (HL-60(TB) leukemia)
28 µM: TGI (SK-MEL-5 melanoma)
40.3 µM: TGI (MDA-MB-231 breast)
70.1 µM: TGI (A498 renal)
36 µM: TGI (LOX IMVI melanoma)
67.2 µM: TGI (UACC-257 melanoma)
39.3 µM: TGI (U251 CNS)
81.3 µM: TGI (786-0 renal)
47.4 µM: TGI (HT29 colon)
52.1 µM: TGI (NCI-H226 lung)
33.9 µM: TGI (HOP-62 NSCLC)
33.2 µM: TGI (COLO 205 colon)
